# Results published in PMC7536072, “Molecular and functional characterization of somatostatin-type signalling in a deuterostome invertebrate” (Open Biology, 2020).
# “Also recorded” adds a separate entry of the source. Where two headings read alike, the source gives them in different places. Bridges are numbered along the chain shown (N, C = ends). Where no end group is shown, it is not given here.
# How the values were obtained:
# [1] = test system: cardiac stomach preparations from A. rubens; test: in vitro relaxation of cardiac stomach preparations; design: species or system Asterias rubens; details: n = 6
# Experimental: Synthetic ArSS2 ([…], with a disulfide bridge between the cysteine residues) was custom synthesized (Peptide Protein Research Ltd, Fareham, UK) to enable testing of its pharmacological effects on in vitro preparations of organs/muscles from A. rubens. ArSS2 was tested for its in vitro effects on the contractility of tube foot, apical muscle and cardiac stomach preparations from at least six different specimens of A. rubens. Individual tube foot preparations were dissected from starfish arms with their corresponding ampulla intact. Then cotton ligatures were tied around the ambulacral body wall and the tube foot disc and then the external epithelium of the tube foot was scraped off using a blunt scalpel blade to facilitate penetration of peptides when tested in vitro, as described previously. Apical muscle preparations were dissected from the aboral body wall with approximately 1 cm strips of apical muscle tied at each end with cotton ligatures. Cardiac stomach preparations were dissected as described previously and then were tied at the aboral side of the cardiac stomach and around the oesophagus with cotton ligatures. The dissected preparations were tied to a fixed metal hook orally and to a high-grade isotonic transducer (MLT0015; ADInstruments Ltd; Oxford, UK) aborally, suspended in a 20 ml aerated organ bath containing artificial seawater at approximately 11°C. The transducer was connected via a bridge amplifier (FE221 Bridge Amp, ADInstruments Ltd, Oxford, UK) to data acquisition hardware (PowerLab 2/36, ADInstruments Ltd, Oxford, UK). Data collected from PowerLab were visualized as traces and analysed using LabChart (v. 8.0.7) software installed on a laptop computer (Lenovo E540, Windows 7 Professional).
# To examine the effects of ArSS2 on tube foot and cardiac stomach preparations, 10^−6 M acetylcholine (ACh) or artificial seawater (ASW) containing 30 mM added KCl was used to induce contraction of these preparations, respectively. Once a stable baseline contracted state was achieved, synthetic ArSS2 was added into the organ bath to sequentially achieve final concentrations in the range of 10^−10 to 10^−6 M. For these experiments, the contracting effect of 10^−6 M ACh or ASW containing 30 mM added KCl was defined as 100% and the relaxing effects of ArSS2 were then calculated as a percentage reversal of the 100% contracted state.
# Experiments were performed where the effects of ArSS2, S2 and asterotocin (at 10^−7 and 10^−6 M) on cardiac stomach preparations (n = 6) were compared. For these experiments, the effect of 10^−7 or 10^−6 M S2 was defined as 100% and the effect of asterotocin or ArSS2 was calculated as a % of the effect of S2. To determine if there were significant differences in magnitude of the relaxing effects of the three peptides on cardiac stomach preparations, data were analysed statistically using a two-tailed Student's t-test in Prism 6.
# [2] = test system: apical muscle preparations from A. rubens; details: ref [67]; cited from earlier work
# [3] = test system: tube foot preparations from A. rubens; details: ref [67]; cited from earlier work
# [4] = test system: cardiac stomach of A. rubens; test: in vivo cardiac stomach eversion after injection into the perivisceral coelom; design: species or system Asterias rubens; details: 10 µl 10^−3 M into perivisceral coelom, n = 10
# Experimental: When starfish (A. rubens) feed, the cardiac stomach is relaxed and everted out of the mouth over the digestible soft tissues of prey (e.g. mussels). […] Therefore, because ArSS2 causes relaxation of cardiac stomach preparations in vitro, we investigated if ArSS2 also triggers cardiac stomach eversion when injected in vivo. Firstly, 15 medium-sized starfish were starved for one week to normalize their physiological status. A Hamilton […] 50 μl syringe (Sigma-Aldrich; Gillingham, UK) was used to inject 10 μl 1 mM ArSS2, or 10 μl 1 mM asterotocin (positive control) or 10 μl water (negative control) into the […] coelom of starfish. ArSS2 was tested on five individuals firstly and then the next day, asterotocin was tested on the same batch of five individuals. For another five individuals, asterotocin was tested first and then ArSS2 was tested on the following day. The remaining five individuals were injected with water as a control. Thus, both ArSS2 and asterotocin were tested on ten starfish. For each starfish, the test agent was injected via two sites in the dorsal body wall of the arms proximal to the junctions with the central disc region. Care was taken to inject test agents into the […] coelom and not into the cardiac stomach.
# [5] = test system: cardiac stomach of A. rubens; details: cited from earlier work
# Description: When starfish (A. rubens) feed, the cardiac stomach is relaxed and everted out of the mouth over the digestible soft tissues of prey (e.g. mussels). […] Therefore, because ArSS2 causes relaxation of cardiac stomach preparations in vitro, we investigated if ArSS2 also triggers cardiac stomach eversion when injected in vivo. Firstly, 15 medium-sized starfish were starved for one week to norm ... || Asterias rubens feeds by everting its cardiac stomach through a narrow oral opening (mouth) and over the digestible parts of its prey, and for this to be accomplished, the cardiac stomach must be in a relaxed state. Neuropeptides that cause cardiac stomach in vitro are therefore potential mediators of cardiac stomach eversion in vivo. […] Therefore, here we investigated if ArSS2 also triggers cardiac stomach ever ... || The in vitro relaxing effect of ArSS2 on the cardiac stomach of A. rubens is of interest from a physiological/behavioural perspective because relaxation of the cardiac stomach is required for the extraoral feeding behaviour of starfish where it is everted out of the mouth and over the digestible soft tissue of prey such as mussels.
# [6] = test system: cardiac stomach preparations from A. rubens; details: cited from earlier work; for cardiac stomach relaxant activity: ref [64],[67]
# Description: Likewise, ArSS2 caused dose-dependent relaxation of cardiac stomach preparations at concentrations between ... || ArSS2 is widely expressed in the digestive system of A. rubens, including the peristomial membrane, cardiac stomach, pyloric stomach, pyloric duct, and pyloric caeca. In the cardiac stomach, ArSSP2 transcripts are detected in cells located in the mucosa layer and ArSS2-immunoreactivity is present in the adjacent basi-epithelial nerve plexus. Consistent with this expression of ArSS2 in the cardiac stomach, ArSS2 causes dose-dependent relaxation of cardiac stomach preparations.
# ArSSR2 = test: GFP-aequorin luminescence receptor activation assay, CHO-K1 cells, ArSSR2 + Gα16; format: cell-based, Asterias rubens; details: ArSSR2
# ArSSR1 = test: GFP-aequorin luminescence receptor activation assay, CHO-K1 cells, ArSSR1 + Gα16; format: cell-based, Asterias rubens; details: ArSSR1
# [7] = test system: CHO-K1 cells transfected with an empty pcDNA3.1(+) vector; test: luminescence control assay, CHO-K1 cells transfected with empty vector; format: cell-based, Chinese hamster; details: 10^-12 to 10^-5 M (figure S12), 0.1 % Triton X-100 = 100%
# Experimental: In order to characterize the candidate SS-type receptors, a G-protein-dependent receptor activation assay was employed. Chinese hamster ovary (CHO)-K1 cells stably overexpressing the calcium-sensitive bioluminescent reporter GFP-aequorin fusion protein (G5A) were used as a heterologous expression system. Plasmids containing A. rubens SS-type receptor cDNAs were co-transfected with the promiscuous human Gα16, which is widely used for receptor deorphanization assays. […] After 3 h incubation, a fixed volume of cells was injected sequentially into each well containing different concentrations of peptides using a FLUOstar Omega Plate Reader (BMG LABTECH, Ortenberg, Germany). Luminescence values were recorded over a 35 s period after injection. The total luminescence of each well over the 35 s period was calculated and normalized to the maximum value obtained in each experiment (100% activation) and to the value obtained with the vehicle media (0% activation). […] EC50 values were calculated from dose–response curves using Prism 6. The luminescence responses triggered by 10^−5 M ArSS1, 10^−5 M ArSS2 and vehicle media were analysed by one-way ANOVA using Bonferroni's multiple comparisons post hoc test in Prism 6. […]
# ArSSR3 = test: GFP-aequorin luminescence receptor activation assay, CHO-K1 cells, ArSSR3 + Gα16; format: cell-based, Asterias rubens; details: ArSSR3
# ArSSR3, sequence (as listed by the source): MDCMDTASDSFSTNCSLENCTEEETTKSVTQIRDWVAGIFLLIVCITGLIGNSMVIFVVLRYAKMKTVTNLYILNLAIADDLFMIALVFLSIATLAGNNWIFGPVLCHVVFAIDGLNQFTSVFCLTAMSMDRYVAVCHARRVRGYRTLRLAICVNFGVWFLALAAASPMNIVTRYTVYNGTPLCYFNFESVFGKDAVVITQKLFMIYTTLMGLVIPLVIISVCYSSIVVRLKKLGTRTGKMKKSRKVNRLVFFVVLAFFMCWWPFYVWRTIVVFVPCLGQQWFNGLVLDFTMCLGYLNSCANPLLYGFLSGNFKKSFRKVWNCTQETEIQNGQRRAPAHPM
# [8] = injected in vivo, ref [66],[67]
# [9] = 10^−5 M, vs BSA media (control) and, for ArSS2, vs ArSS1, one-way ANOVA, Bonferroni
substance,measurement,setting,value
"CLVQDCPEG-NH2 (disulfide 1-6 (inferred)) [asterotocin, reference compound]",relaxing effect compared with S2,"[1]; 10^−6 M, two-tailed Student's t-test p = 0.0255",significantly larger than the effect S2
same,relaxing effect compared with ArSS2,"[1]; 10^−6 M, two-tailed Student's t-test p = 0.0483",significantly larger
same,magnitude of cardiac stomach relaxing action relative to S2,"[1]; 10^−7 M, KCl-contracted, mean",3.5 times the effect of S2
same,relaxing effect compared with S2,"[1]; 10^−7 M, two-tailed Student's t-test p = 0.0055",significantly larger than the effect of S2
same,relaxing effect compared with ArSS2,"[1]; 10^−7 M, two-tailed Student's t-test p = 0.0250",significantly larger
same,relaxation of apical muscle preparations,[2],caused relaxation of cardiac stomach and apical muscle preparations but not tube feet
same,relaxation of tube foot preparations,[3],caused relaxation of cardiac stomach and apical muscle preparations but not tube feet
same,"mean maximal eversion, area of everted cardiac stomach",[4]; 10 min recording,~125 % of the area of the central disc region
same,incidence of cardiac stomach eversion,[4],all of the animals
same,time of mean maximal eversion after injection,[4],approximately 9 min
same,cardiac stomach eversion,"[5]; 100 µl 10^−3 M into perivisceral coelom, ref [67]",complete eversion of the cardiac stomach
same,cardiac stomach eversion,[5]; [8],induce cardiac stomach eversion when injected in vivo
same,effectiveness and potency in triggering cardiac stomach eversion compared with S2,[5]; ref [67],much more effective and potent than S2
same,cardiac stomach relaxant activity,[6],act as cardiac stomach relaxants
same,effectiveness as cardiac stomach relaxant compared with S2,[6]; ref [67],much more effective as a cardiac stomach relaxant than S2
same,relaxation of cardiac stomach preparations,[6]; ref [67],caused relaxation of cardiac stomach and apical muscle preparations but not tube feet
"KCIGRFQPFSMPC (disulfide 2-13 (inferred)) [ArSS1, 13-residue SS-type neuropeptide of Asterias rubens derived from ArSSP1 (…)]",luminescence compared with control,ArSSR2; [9],not significantly different
same,triggering of luminescence,ArSSR2; 10^−21 to 10^−4 M,did not trigger luminescence
same,luminescence compared with control,ArSSR1; [9],not significantly different
same,triggering of luminescence,ArSSR1; 10^−21 to 10^−4 M,did not trigger luminescence
same,luminescence response in cells with empty vector,[7],do not trigger luminscence; also recorded: Neither ArSS1 nor ArSS2 elicited responses
same,luminescence compared with control,ArSSR3; [9],not significantly different
same,triggering of luminescence,ArSSR3; 10^−21 to 10^−4 M,did not trigger luminescence
"SGPYSFNSGLTF-NH2 [S2, SALMFamide neuropeptide S2 (…-NH2)]",magnitude of cardiac stomach relaxing action relative to asterotocin,"[1]; 10^−6 M, KCl-contracted, mean",approximately 50 % of the effect of asterotocin
same,cardiac stomach eversion,[5]; [8],induce cardiac stomach eversion when injected in vivo
same,cardiac stomach relaxant activity,[6],act as cardiac stomach relaxants
same,relaxation of tube foot and/or cardiac stomach preparations,"[6]; tube foot and/or cardiac stomach, ref [64],[66]",cause relaxation of tube foot and/or cardiac stomach preparations
